Source: patent publication US11077111B2, “Use of fused heteroaromatic pyrrolidones for treatment and prevention of diseases in animals” (Bayer Animal Health GmbH, priority 2017, dated 2021)

Key:
[1] = test system: house dust mites (HDM)-sensitized Beagle dogs; assay: In vivo model of house dust mite induced canine allergic dermatitis; conditions: for reduction rates of edema / reduction rates of erythema: range over time points
Procedure: Therein, HDM-sensitization consisted of a series of subcutaneous injections of HDM antigen (10 μg, Greer Laboratories, Lenoir, N.C., USA) and Alhydrogel® (0.2 mL, InvivoGen, San Diego, Calif. 921221, USA) as adjuvant in time intervals of approximately two weeks. The sensitization process was monitored and confirmed by intradermal skin testing. […] The control group was not treated while the group treated with the compound according to formula (IIIa) supra was orally treated with gelatin capsules containing the compound according to formula (IIIa) supra and Ac-Di-Sol; the group receiving Apoquel®, received the commercially available tablets. […] Plasma samples were analyzed to determine exposure to the compound in relationship to the clinical evaluations. […] This is illustrated by Tables 1 and 2, and by FIGS. 1 and 2.

SYK = SYK (Canis lupus familiaris, UniProt A0A8I3P3G0); assay: Radiometric protein kinase assay, dog SYK; type: biochemical, Dog (Canis lupus familiaris); conditions: 1 μM ATP
Procedure: A radiometric protein kinase assay was used for measuring the kinase activity of the Dog (Canis lupus familiaris) IRAK4, JAK1, JAK2, SYK kinases. All kinase assays were performed in 96-well FlashPlates in a 50 μl reaction volume. […] The reaction was stopped with 50 μl of 2% (v/v) H3PO4, plates were aspirated and washed two times with 200 μl 0.9% (w/v) NaCl. Incorporation of 33Pi was determined with a microplate scintillation counter. IC50 calculation: the residual activity (in %) for each well of a particular plate was calculated by using the following formula: Res. Activity (%)=100×[(cpm of compound−low control)/(high control−low control)] […] The fitting method used was a least-squares fit. Materials: The dog (Canis lupus familiaris) protein kinases IRAK4, JAK1, JAK2 and SYK had been recombinantly expressed in Sf9 insect cells and purified by affinity chromatography.

JAK2 = JAK2 (Canis lupus familiaris, UniProt A0A8C0QV87); assay: Radiometric protein kinase assay, dog JAK2; type: biochemical, Dog (Canis lupus familiaris); conditions: 0.3 μM ATP
Procedure: (§1) A radiometric protein kinase assay was used for measuring the kinase activity of the Dog (Canis lupus familiaris) IRAK4, JAK1, JAK2, SYK kinases. All kinase assays were performed in 96-well FlashPlates in a 50 μl reaction volume. The reaction cocktail was pipetted in four steps in the following order: • 20 μl of assay buffer (standard buffer) • […] of test compound (in 10% DMSO) • 20 μl enzyme/substrate mix • […] (in H2O) The reaction cocktails were incubated at 30° C. for 60 minutes. The reaction was stopped with 50 μl of 2% (v/v) H3PO4, plates were aspirated and washed two times with 200 μl 0.9% (w/v) NaCl. Incorporation of 33Pi was determined with a microplate scintillation counter.
(§2) IC50 calculation: the residual activity (in %) for each well of a particular plate was calculated by using the following formula: Res. Activity (%)=100×[(cpm of compound−low control)/(high control−low control)]
(§3) The residual activities for each concentration and the compound IC50 values were calculated using Quattro Workflow V3.1.1 (Quattro Research GmbH, Munich, Germany; www.quattro-research.com). The fitting model for the IC50 determinations was “Sigmoidal response (variable slope)” with parameters “top” fixed at 100% and “bottom” at 0%. The fitting method used was a least-squares fit. […]

IRAK4 = IRAK4 (Canis lupus familiaris, UniProt A0A8I3S726); assay: Radiometric protein kinase assay, dog IRAK4; type: biochemical, Dog (Canis lupus familiaris); conditions: 10 μM ATP
Procedure: as §1, §2, §3

JAK1 = JAK1 (Canis lupus familiaris, UniProt A0A8I3RS40); assay: Radiometric protein kinase assay, dog JAK1; type: biochemical, Dog (Canis lupus familiaris); conditions: 3 μM ATP
Procedure: as §1, §2, §3

[2] = 0.8 mg/kg BID oral, 0.5 h post-challenge
[3] = 0.8 mg/kg BID oral, 1 h post-challenge
[4] = 0.8 mg/kg BID oral, 4 h post-challenge
[5] = 0.8 mg/kg BID oral, 6 h post-challenge
[6] = 0.8 mg/kg BID oral, 24 h post-challenge
[7] = 0.8 mg/kg BID oral, 48 h post-challenge
[8] = 2 mg/kg BID oral, 0.5 h post-challenge
[9] = 2 mg/kg BID oral, 1 h post-challenge
[10] = 2 mg/kg BID oral, 4 h post-challenge
[11] = 2 mg/kg BID oral, 6 h post-challenge
[12] = 2 mg/kg BID oral, 24 h post-challenge
[13] = 2 mg/kg BID oral, 48 h post-challenge

Sequence of JAK1 (A0A8I3RS40 1-1159): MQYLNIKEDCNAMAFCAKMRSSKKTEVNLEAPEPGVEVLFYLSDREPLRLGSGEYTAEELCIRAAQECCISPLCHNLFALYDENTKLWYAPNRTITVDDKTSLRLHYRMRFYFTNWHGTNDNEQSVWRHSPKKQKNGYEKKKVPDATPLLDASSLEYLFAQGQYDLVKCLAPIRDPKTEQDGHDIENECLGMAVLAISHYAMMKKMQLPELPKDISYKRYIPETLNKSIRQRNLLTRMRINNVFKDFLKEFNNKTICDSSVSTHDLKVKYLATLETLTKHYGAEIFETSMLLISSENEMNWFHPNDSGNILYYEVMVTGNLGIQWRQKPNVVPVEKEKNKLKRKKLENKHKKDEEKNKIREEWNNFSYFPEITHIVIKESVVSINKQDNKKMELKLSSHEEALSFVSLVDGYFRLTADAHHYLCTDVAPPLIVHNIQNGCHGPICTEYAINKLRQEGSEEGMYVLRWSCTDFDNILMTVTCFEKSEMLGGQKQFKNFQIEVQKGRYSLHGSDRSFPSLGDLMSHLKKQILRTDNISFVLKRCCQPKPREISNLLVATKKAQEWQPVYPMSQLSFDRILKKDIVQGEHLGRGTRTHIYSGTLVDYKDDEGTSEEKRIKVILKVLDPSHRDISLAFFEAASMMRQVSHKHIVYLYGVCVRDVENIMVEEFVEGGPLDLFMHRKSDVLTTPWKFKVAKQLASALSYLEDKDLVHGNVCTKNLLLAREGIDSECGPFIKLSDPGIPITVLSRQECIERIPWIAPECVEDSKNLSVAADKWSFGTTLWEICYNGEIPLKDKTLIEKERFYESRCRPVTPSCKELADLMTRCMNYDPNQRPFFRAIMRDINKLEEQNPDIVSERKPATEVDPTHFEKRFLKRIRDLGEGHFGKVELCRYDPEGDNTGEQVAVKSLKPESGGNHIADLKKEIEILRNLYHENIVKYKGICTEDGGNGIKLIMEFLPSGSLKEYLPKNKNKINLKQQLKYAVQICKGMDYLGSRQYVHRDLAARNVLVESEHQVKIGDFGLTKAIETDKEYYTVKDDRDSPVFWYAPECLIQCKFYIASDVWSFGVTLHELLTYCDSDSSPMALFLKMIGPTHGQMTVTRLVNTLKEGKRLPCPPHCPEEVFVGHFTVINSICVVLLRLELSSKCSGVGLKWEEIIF
Sequence of JAK2 (A0A8C0QV87 1-1132): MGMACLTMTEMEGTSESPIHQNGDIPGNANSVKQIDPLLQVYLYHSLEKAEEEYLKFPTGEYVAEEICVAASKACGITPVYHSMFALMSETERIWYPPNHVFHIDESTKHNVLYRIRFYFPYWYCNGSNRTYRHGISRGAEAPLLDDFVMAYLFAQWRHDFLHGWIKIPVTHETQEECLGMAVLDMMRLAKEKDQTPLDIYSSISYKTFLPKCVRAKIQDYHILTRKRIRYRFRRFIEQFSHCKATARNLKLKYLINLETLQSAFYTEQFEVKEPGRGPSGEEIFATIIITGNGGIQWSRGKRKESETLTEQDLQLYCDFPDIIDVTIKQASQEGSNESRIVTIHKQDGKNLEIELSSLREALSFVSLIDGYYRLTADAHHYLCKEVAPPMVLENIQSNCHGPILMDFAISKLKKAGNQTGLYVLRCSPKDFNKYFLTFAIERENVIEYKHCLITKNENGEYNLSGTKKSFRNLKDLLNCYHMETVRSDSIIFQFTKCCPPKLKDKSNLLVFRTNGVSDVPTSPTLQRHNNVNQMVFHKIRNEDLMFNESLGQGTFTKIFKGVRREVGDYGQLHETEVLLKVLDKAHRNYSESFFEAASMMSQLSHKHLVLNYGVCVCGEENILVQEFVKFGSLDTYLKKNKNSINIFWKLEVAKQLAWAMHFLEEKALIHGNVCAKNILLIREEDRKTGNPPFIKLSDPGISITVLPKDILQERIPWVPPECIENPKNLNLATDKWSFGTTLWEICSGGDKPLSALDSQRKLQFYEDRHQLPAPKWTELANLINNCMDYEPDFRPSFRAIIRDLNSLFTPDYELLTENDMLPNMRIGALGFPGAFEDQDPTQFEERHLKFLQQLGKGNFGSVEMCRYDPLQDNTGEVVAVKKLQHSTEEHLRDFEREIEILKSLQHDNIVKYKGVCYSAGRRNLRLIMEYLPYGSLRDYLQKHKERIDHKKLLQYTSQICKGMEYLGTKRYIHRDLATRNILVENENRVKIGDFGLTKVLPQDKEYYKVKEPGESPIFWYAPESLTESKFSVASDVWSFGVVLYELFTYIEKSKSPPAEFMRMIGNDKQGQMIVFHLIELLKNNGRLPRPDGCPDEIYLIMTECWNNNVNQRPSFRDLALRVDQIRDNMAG
Sequence of IRAK4 (A0A8I3S726 1-460): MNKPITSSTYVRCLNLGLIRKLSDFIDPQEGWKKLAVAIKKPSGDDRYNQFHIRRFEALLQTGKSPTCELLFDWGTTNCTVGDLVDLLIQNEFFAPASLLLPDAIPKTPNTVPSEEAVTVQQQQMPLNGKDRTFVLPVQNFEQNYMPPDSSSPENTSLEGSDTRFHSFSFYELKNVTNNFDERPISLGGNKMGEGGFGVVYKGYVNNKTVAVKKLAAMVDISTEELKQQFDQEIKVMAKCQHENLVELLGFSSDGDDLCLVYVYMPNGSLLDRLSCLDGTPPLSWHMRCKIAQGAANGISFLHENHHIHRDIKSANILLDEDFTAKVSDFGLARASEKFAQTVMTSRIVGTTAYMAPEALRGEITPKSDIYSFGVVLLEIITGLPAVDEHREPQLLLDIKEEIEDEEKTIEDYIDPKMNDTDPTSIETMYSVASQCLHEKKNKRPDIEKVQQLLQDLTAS
Sequence of SYK (A0A8I3P3G0 1-633): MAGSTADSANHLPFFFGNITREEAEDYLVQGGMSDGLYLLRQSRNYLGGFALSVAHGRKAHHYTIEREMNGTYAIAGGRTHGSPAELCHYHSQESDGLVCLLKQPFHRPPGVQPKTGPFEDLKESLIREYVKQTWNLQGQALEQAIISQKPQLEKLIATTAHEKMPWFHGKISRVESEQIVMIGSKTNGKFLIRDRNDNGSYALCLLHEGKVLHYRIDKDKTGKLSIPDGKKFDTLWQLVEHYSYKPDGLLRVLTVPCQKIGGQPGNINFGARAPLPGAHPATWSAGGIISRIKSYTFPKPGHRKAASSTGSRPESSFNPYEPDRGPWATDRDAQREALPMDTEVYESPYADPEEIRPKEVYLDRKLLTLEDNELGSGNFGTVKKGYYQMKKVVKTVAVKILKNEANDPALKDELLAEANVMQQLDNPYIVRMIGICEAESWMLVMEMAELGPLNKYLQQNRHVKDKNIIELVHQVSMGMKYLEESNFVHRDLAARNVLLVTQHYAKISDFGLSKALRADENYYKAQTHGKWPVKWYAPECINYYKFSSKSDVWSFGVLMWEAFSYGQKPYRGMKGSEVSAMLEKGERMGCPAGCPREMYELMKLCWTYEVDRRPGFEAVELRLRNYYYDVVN

Cn1cc(-c2nc(N[C@@H]3CCCC[C@@H]3N)c(F)c3c2C(=O)NC3)cn1 [IIIa, 6-((1R,2S)-2-aminocyclohexylamino)-7-fluoro-4-(1-methyl-1H-pyrazol-4-yl)-1H-pyrrolo[3,4-c]pyridine-3(2H)-one]
Percentage of reduction of Edema (compared to untreated control, median values) [1, 2]: 41% | Percentage of reduction of Erythema (compared to untreated control, median values) [1, 2]: 33% | Percentage of reduction of Edema (compared to untreated control, median values) [1, 3]: 52% | Percentage of reduction of Erythema (compared to untreated control, median values) [1, 3]: 63% | Percentage of reduction of Edema (compared to untreated control, median values) [1, 4]: 39% | Percentage of reduction of Erythema (compared to untreated control, median values) [1, 4]: 30% | Percentage of reduction of Edema (compared to untreated control, median values) [1, 5]: 49% | Percentage of reduction of Erythema (compared to untreated control, median values) [1, 5]: 28% | Percentage of reduction of Edema (compared to untreated control, median values) [1, 6]: 41% | Percentage of reduction of Erythema (compared to untreated control, median values) [1, 6]: 43% | Percentage of reduction of Edema (compared to untreated control, median values) [1, 7]: 100% | Percentage of reduction of Erythema (compared to untreated control, median values) [1, 7]: 100% | reduction rates of edema ([1]; 0.8 mg/kg BID): 39-100% | reduction rates of erythema ([1]; 0.8 mg/kg BID): 28-100% | comparative reduction of edema in the CAD model (% compared the control group), up to ([1]; 2 mg/kg BID): > 75% | comparative reduction of erythema in the CAD model (% compared the control group), up to ([1]; 2 mg/kg BID): > 75% | Percentage of reduction of Edema (compared to untreated control, median values) [1, 8]: 76% | Percentage of reduction of Erythema (compared to untreated control, median values) [1, 8]: 74% | Percentage of reduction of Edema (compared to untreated control, median values) [1, 9]: 81% | Percentage of reduction of Erythema (compared to untreated control, median values) [1, 9]: 76% | Percentage of reduction of Edema (compared to untreated control, median values) [1, 10]: 75% | Percentage of reduction of Erythema (compared to untreated control, median values) [1, 10]: 75% | Percentage of reduction of Edema (compared to untreated control, median values) [1, 11]: 79% | Percentage of reduction of Erythema (compared to untreated control, median values) [1, 11]: 76% | Percentage of reduction of Edema (compared to untreated control, median values) [1, 12]: 75% | Percentage of reduction of Erythema (compared to untreated control, median values) [1, 12]: 69% | Percentage of reduction of Edema (compared to untreated control, median values) [1, 13]: 100% | Percentage of reduction of Erythema (compared to untreated control, median values) [1, 13]: 100% | reduction rates of edema ([1]; 2 mg/kg BID): 75-100% | reduction rates of erythema ([1]; 2 mg/kg BID): 69-100% | effect on clinical signs of CAD (edema and erythema) ([1]; House Dust Mite model, oral BID): significantly reduced

Cn1cc(-c2nc(N[C@@H]3CCCC[C@@H]3N)c(Cl)c3c2C(=O)NC3)cn1 [IVa, 6-((1R,2S)-2-Aminocyclohexylamino)-7-chloro-4-(1-methyl-1H-pyrazol-4-yl)-1H-pyrrolo[3,4-c]pyridin-3(2H)-one]
IC50 (SYK): 323 nM | IC50 (JAK2): 624 nM | IC50 (IRAK4): 10.2 nM | IC50 (JAK1): 466 nM
